Reference: ChEMBL document CHEMBL1201862, “PubChem BioAssay data set” (2004)
Calls of active or inactive are those of the source.

Experiments:
[1] = target: Muscarinic acetylcholine receptor M1 (Rattus norvegicus, UniProt P08482); test: concentration-dependent potentiation of ACh at M1 – cell-based, calcium mobilization, CHO-K1, ACh EC20, dose response (AID 2425); format: functional
Mucolipin-3 [2] = target: T1, Mucolipin-3 (Homo sapiens, UniProt Q8TDD5); test: human mucolipin-3 activators, concentration-response – cell-based, calcium fluorescence, dose response (AID 2510); format: functional
T1 sequence (Q8TDD5 whole entry): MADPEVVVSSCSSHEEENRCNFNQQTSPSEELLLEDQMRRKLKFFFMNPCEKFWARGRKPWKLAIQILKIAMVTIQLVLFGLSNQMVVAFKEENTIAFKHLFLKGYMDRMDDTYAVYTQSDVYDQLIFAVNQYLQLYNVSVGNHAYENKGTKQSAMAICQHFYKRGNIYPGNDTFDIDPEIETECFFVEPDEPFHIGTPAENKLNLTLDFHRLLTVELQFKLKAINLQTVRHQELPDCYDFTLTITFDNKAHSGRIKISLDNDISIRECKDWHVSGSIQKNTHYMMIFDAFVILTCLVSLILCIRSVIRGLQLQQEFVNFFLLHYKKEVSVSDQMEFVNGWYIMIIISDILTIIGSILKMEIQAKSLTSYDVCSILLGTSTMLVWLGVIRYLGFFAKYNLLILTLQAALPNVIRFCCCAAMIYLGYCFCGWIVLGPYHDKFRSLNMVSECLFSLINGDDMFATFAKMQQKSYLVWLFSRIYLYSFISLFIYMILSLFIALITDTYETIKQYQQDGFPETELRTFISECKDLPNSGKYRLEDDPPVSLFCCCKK

Mucolipin-3 [3] = target: T1, Mucolipin-3; test: Dose response cell-based high-throughput screening assay for agonists of the transient receptor potential channel ML3 (TRPML3). [Related pubchem assays: 1526, 1424, 1448 ]; format: functional
Ion channel NompC [4] = target: T2, Ion channel NompC (Danio rerio, UniProt Q7T1G6); test: Late stage counterscreen for the probe development effort to identify selective agonists of the Transient Receptor Potential Channels 3 (TRPML3): fluorescence-based cell-based dose response assay for TRPN1 agonists.; format: functional
Ion channel NompC [5] = target: T2, Ion channel NompC; test: Fluorescence counterscreen assay for TRPML3 agonists: dose response cell-based high-throughput screening assay to identify agonists of the transient receptor potential channel N1 (TRPN1). [Related pubchem assays: 1526, 1424, 1448 ]; format: functional
[6] = target: T3, Corticotropin-releasing factor receptor 2/Corticotropin-releasing factor-binding protein (Homo sapiens, UniProt P24387+Q13324); test: activators of CRF receptor 2 with binding protein – uHTS hits, confirmation (AID 602473); format: functional; details: read-out: EC50_Mean
T3 sequence (Q13324 whole entry): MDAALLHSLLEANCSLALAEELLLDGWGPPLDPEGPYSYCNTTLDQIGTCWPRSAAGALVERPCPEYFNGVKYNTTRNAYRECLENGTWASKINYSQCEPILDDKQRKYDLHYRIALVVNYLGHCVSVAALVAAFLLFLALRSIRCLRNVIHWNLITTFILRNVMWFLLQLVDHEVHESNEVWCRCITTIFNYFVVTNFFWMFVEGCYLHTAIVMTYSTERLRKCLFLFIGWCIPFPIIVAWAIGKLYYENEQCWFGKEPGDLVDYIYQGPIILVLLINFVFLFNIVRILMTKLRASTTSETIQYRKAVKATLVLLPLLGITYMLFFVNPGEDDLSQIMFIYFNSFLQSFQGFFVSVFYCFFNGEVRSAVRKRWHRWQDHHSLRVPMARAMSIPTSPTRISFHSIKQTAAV
T3 sequence (P24387 whole entry): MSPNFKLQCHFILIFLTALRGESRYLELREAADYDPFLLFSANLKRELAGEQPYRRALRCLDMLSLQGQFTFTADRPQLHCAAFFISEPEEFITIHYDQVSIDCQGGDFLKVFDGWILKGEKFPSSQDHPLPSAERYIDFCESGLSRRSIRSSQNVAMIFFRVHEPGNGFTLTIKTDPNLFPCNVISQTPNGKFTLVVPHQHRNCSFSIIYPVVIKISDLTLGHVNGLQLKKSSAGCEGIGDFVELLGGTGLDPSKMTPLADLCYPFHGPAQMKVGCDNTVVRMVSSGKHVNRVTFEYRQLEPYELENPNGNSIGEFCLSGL

NADPH oxidase 1 = target: T4, NADPH oxidase 1 (Homo sapiens, UniProt Q9Y5S8); test: Late-stage luminescence-based cell-based dose response assay to identify inhibitors of NADPH oxidase 1 (NOX1): Synthesized analogs 2.; format: functional
T4 sequence (Q9Y5S8 whole entry): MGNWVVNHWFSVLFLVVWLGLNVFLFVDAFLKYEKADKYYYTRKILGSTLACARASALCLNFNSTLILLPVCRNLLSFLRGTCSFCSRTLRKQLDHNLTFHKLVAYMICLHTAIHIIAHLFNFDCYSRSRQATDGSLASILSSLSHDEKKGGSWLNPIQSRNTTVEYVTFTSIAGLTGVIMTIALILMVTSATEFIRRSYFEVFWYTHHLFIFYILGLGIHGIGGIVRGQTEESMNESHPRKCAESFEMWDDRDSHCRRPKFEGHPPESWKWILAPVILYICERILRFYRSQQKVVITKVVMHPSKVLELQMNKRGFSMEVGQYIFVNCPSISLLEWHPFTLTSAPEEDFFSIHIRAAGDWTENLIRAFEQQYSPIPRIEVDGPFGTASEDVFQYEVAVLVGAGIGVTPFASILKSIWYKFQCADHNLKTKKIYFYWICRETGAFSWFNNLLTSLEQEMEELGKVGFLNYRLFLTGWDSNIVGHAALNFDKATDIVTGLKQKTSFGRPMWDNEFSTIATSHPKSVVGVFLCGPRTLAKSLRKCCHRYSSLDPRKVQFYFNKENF

[7] = target: Luciferin 4-monooxygenase (Photinus pyralis, UniProt P08659); test: inhibition of purified Photinus pyralis luciferase – biochemical, luminescence, dose response (AID 1891)
[8] = Luminescence Cell-Based Dose Confirmation HTS to Identify Inhibitors of Platelet Dense Granule Release. [Related pubchem assays: 1663 (Primary HTS), 1678 (Summary of Project)]; format: functional
[9] = Fluorescence Cell-Based Dose Response to Identify Inhibitors of Thrombin Receptor-Activating Peptide SFLLRN-Mediated P-Selectin Induction on Platelets. [Related pubchem assays: 1663 (Primary HTS), 1889 (retest at dose ), 1891 (counterscreen), 1678 (Project Summary)]; format: functional
[10] = target: T5, Sphingosine 1-phosphate receptor 4 (Homo sapiens, UniProt O95977); test: Fluorescence dose response cell-based high throughput screening assay for antagonists of the Sphingosine 1-Phosphate Receptor 4 (S1P4). [Related pubchem assays: 1524 (Confirmation in triplicates.), 1510 (Primary screen.)]; format: functional
T5 sequence (O95977 whole entry): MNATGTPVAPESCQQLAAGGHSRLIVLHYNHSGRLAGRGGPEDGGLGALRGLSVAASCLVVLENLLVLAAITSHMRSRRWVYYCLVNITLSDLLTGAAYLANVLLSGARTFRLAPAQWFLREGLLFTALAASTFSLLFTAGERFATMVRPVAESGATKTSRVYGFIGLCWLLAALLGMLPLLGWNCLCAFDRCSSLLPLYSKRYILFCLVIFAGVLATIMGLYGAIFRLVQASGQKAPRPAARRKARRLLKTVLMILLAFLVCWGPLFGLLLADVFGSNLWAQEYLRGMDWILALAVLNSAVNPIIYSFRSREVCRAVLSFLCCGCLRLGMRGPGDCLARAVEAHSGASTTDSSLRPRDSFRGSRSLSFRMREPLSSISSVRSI

[11] = target: Sphingosine 1-phosphate receptor 1 (Homo sapiens, UniProt P21453); format: functional;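 note: Tango beta-arrestin reporter U2OS cells stimulated with S1P near its EC80; inhibitor potency meaning antagonism of receptor activation by the natural agonist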
CHO = CHO cell viability loss, potency – luminescence, cytotoxicity control for TLR9-MyD88 binding inhibitor project, dose response (AID 588339); format: functional, cell-based, hamster; details: Cricetulus griseus;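 note: CHO cells stably coexpressing TLR9 and MyD88 fusions from primary screen; compound exposure lasted 48 hours before viability readout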
[12] = target: T6, Replicative DNA helicase DnaB (Mycobacterium tuberculosis, UniProt P9WMR3); test: DnaB intein splicing inhibitors, dose response, biochemical, cell-free fluorescence (AID 449749); format: functional
T6 sequence (P9WMR3 whole entry): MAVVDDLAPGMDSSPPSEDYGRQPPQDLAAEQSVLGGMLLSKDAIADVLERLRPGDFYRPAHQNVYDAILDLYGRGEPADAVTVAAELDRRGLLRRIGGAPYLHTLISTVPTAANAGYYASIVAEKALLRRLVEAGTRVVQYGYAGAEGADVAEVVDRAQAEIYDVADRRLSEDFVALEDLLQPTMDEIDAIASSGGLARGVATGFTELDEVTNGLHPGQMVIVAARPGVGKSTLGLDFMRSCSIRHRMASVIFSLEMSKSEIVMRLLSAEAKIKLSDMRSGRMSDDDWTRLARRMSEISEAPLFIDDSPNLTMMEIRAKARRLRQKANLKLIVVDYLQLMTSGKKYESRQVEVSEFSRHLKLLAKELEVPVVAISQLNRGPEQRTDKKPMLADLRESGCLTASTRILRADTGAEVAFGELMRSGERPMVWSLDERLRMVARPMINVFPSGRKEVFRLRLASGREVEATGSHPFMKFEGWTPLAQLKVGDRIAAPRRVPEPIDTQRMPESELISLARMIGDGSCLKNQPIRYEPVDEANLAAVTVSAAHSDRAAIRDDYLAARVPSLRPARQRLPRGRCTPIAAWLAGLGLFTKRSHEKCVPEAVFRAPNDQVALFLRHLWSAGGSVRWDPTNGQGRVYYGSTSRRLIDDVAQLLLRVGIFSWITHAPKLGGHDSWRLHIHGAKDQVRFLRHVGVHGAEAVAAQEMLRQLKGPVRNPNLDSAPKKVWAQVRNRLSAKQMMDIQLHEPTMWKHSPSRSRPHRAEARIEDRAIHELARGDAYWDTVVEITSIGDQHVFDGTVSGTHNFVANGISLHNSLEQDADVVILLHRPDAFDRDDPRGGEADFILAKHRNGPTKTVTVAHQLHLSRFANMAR

Protein RecA = target: T7, Protein RecA (Mycobacterium tuberculosis, UniProt P9WHJ3); test: Fluorescence Cell-Free Homogeneous Dose Retest to Identify Inhibitors of RecA-Intein Splicing Activity. [Related pubchem assays (depositor defined):AID2097, AID2223, AID489010, AID492950]; format: functional
T7 sequence (P9WHJ3 whole entry): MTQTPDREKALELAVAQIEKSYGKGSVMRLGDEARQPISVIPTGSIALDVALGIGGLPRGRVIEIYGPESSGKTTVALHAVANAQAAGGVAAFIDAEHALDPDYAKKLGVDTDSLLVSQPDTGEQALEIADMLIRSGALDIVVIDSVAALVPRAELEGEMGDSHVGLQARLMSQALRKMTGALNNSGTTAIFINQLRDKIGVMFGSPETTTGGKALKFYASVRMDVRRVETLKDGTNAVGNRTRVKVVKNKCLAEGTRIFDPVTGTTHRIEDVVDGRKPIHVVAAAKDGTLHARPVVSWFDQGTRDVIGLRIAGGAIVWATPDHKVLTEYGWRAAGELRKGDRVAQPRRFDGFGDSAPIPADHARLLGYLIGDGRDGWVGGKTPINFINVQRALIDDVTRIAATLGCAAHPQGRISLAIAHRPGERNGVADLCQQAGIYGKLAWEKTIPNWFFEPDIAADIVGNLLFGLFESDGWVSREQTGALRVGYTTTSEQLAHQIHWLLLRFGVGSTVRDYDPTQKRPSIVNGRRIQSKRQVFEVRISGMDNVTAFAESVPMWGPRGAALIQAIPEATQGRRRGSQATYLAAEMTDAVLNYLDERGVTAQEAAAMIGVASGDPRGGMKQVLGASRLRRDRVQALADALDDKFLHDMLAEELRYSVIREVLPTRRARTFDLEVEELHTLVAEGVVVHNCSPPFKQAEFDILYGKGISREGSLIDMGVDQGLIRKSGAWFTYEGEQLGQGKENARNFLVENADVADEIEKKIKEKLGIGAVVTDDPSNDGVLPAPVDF

Beta Lactamase = Beta Lactamase (Pseudomonas aeruginosa, UniProt Q932Y6); test: BLA reporter interference, concentration series – BLA reporter cells, FRET fluorescence, artefact control for TLR9-MyD88 binding inhibitor project, dose response (AID 588341); format: cell-based;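 note: cell based assay in CHO-K1 cells stably expressing beta-lactamase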
A-375 [13] = test: MITF: Counter assay: A375 proliferation Measured in Cell-Based System Using Plate Reader - 2084-03_Inhibitor_Dose_DryPowder_Activity. [Related pubchem assays (depositor defined):AID488944]; format: functional; details: Homo sapiens
A-375 [14] = test: proliferation inhibition in MITF-low A375 cells – cell-based, cherry-pick samples, set 2, counter-screen for MITF modulator project, dose response (AID 540335); format: functional; details: Homo sapiens
Paired box protein Pax-8 = Paired box protein Pax-8 (Homo sapiens, UniProt Q06710); test: PAX8 transcriptional activity inhibition in RMG-I – RMG-I cells, luciferase, cherry-pick, dose response (AID 687027); format: functional, cell-based;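 note: luciferase reporter driven by Pax8 target thyroperoxidase promoter measured by SteadyGlo luminescence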
Cytochrome P450 2C19 = Cytochrome P450 2C19 (Homo sapiens, UniProt P33261); test: qHTS Assay for Inhibitors and Substrates of Cytochrome P450 2C19. [Related pubchem assays: 410 ]; format: ADME; details: read-out: Potency
[15] = HPDE-C7 pancreatic duct cell viability loss – fluorescence, HTS (AID 430); format: functional, cell-based; details: Homo sapiens
[16] = viability loss of HPDE-C7K cells – cell-based, fluorescence, HTS, primary screen (AID 431); format: functional; details: Homo sapiens

T2 sequence (Q7T1G6 whole entry): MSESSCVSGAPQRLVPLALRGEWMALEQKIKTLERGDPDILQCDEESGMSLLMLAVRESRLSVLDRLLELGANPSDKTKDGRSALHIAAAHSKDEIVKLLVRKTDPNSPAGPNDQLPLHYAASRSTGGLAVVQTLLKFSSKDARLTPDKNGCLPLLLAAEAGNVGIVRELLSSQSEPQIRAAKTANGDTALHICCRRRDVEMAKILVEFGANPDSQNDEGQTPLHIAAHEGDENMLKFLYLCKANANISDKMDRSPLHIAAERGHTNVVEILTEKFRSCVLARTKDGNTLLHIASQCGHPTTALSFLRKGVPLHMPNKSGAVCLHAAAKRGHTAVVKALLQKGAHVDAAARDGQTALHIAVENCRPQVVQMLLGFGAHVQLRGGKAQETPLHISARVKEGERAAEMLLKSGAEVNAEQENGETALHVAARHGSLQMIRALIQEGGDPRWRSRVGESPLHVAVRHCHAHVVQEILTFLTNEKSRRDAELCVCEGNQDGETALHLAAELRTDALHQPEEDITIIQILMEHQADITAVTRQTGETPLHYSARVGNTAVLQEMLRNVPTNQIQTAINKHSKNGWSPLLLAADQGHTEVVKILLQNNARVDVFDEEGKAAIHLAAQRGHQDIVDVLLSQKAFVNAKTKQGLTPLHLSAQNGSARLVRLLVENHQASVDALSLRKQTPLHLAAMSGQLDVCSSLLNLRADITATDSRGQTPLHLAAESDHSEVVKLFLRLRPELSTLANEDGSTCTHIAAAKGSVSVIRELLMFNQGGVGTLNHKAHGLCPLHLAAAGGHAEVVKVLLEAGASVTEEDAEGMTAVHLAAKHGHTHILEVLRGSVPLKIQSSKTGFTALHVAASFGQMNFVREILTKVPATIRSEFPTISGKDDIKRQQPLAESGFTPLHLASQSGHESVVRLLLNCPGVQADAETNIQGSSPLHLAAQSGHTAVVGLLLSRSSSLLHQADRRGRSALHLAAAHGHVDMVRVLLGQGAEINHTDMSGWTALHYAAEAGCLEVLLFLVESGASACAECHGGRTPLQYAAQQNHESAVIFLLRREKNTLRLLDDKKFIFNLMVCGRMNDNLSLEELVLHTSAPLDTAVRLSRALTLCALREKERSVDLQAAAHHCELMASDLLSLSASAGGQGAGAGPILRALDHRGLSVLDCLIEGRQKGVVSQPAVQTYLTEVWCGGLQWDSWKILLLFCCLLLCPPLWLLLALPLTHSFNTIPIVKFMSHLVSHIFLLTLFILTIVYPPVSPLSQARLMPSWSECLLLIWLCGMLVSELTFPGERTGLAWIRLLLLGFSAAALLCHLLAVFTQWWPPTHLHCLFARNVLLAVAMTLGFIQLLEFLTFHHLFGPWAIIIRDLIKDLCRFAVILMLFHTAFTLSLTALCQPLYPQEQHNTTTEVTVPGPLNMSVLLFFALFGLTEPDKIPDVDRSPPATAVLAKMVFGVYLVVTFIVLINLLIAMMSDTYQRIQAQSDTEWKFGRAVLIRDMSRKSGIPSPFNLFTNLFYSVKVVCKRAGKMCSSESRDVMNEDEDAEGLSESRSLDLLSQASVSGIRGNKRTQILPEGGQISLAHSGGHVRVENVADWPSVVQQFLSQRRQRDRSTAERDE
Sequence of Paired box protein Pax-8 (Q06710 whole entry): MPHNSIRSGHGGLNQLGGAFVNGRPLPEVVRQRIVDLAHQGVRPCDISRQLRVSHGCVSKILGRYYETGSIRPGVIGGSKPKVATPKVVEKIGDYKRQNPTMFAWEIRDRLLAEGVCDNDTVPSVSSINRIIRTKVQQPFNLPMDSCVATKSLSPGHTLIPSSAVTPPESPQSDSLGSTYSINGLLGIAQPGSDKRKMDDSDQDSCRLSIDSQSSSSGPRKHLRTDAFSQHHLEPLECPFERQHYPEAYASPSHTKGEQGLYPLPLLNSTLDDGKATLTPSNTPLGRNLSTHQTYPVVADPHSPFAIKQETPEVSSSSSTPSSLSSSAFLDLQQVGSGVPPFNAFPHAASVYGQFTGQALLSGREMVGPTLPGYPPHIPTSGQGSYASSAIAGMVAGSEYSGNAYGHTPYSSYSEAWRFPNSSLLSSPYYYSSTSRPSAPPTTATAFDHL
Sequence of Cytochrome P450 2C19 (P33261 whole entry): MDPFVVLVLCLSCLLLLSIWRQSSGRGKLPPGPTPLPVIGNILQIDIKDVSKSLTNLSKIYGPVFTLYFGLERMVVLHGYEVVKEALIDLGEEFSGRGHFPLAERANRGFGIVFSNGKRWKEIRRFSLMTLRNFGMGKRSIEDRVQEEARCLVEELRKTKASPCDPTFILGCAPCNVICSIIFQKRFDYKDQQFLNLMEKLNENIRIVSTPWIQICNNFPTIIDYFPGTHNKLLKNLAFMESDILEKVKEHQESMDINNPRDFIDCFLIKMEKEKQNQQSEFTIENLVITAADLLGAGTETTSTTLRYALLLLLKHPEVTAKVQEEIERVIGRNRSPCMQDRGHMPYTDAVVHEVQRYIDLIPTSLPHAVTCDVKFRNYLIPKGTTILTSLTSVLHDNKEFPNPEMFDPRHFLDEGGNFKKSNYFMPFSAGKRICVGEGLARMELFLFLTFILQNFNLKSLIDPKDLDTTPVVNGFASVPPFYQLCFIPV
Sequence of Beta Lactamase (Q932Y6 whole entry): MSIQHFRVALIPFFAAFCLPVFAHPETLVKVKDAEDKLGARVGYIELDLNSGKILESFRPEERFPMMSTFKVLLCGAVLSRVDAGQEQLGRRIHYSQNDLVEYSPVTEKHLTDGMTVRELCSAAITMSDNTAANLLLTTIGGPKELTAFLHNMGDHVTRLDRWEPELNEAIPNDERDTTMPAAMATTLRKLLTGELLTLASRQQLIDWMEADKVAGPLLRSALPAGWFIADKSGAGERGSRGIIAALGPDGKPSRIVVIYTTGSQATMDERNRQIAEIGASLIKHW
Sequence of Luciferin 4-monooxygenase (P08659 whole entry): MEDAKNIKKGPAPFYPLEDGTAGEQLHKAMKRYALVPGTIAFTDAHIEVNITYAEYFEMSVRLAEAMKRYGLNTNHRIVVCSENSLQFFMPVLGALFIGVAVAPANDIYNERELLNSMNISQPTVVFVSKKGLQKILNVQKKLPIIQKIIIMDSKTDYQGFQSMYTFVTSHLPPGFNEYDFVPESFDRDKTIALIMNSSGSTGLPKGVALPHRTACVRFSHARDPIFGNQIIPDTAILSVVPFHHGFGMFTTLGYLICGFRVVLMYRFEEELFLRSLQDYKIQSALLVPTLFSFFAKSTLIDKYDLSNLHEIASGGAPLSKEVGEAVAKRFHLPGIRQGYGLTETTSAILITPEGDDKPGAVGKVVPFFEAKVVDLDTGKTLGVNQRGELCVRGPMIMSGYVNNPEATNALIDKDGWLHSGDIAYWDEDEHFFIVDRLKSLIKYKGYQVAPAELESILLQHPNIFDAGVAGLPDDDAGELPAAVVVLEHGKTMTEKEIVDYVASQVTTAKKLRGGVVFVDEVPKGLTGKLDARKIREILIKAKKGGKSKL
Sequence of Muscarinic acetylcholine receptor M1 (P08482 whole entry): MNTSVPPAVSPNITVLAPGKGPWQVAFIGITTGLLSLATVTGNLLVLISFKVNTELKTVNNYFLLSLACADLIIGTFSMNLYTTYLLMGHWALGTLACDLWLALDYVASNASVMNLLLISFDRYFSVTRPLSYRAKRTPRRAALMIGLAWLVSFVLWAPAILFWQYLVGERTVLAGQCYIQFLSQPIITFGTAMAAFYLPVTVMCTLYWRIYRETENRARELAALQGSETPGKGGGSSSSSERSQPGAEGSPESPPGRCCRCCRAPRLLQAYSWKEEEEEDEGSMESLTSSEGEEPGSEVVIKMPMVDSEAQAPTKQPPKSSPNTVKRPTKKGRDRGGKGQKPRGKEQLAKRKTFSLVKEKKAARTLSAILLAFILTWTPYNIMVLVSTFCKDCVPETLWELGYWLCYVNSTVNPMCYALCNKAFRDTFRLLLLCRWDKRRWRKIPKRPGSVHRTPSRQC
Sequence of Sphingosine 1-phosphate receptor 1 (P21453 whole entry, the tested form may be a part): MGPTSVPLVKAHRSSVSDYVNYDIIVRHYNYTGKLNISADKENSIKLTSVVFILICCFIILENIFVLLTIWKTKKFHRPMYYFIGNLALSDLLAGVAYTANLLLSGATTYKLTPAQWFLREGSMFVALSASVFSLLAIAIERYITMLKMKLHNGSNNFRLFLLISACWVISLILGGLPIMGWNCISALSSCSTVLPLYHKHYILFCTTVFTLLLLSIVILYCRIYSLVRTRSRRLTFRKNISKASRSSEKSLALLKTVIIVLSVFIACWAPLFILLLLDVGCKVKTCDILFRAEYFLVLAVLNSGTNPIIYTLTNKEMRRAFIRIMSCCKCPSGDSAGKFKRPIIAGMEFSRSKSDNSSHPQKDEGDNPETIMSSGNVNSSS

Cn1cc(-c2cc(F)c(CN3C(=O)C(=O)c4ccccc43)c(F)c2)cn1
EC50 [1]: 0.885 µM (active)

CC1CCN(S(=O)(=O)c2ccc(C(C)C)cc2)CC1
EC50 (Mucolipin-3 [2]): 1.12 µM (active) | EC50 (Mucolipin-3 [3]): 1.33 µM (active) | EC50 (Ion channel NompC [4]): > 29.9 µM (not active) | EC50 (Ion channel NompC [5]): > 29.9 µM (not active) | EC50 [6]: > 53 µM (inactive)

CN1c2ccccc2Sc2cc(Br)ccc21
IC50 (NADPH oxidase 1): > 50 µM (not active)

CS(=O)(=O)c1ncc(Cl)c(C(=O)Nc2ccc3ccccc3c2)n1
EC50 [7]: > 112 µM (not active) | EC50 [8]: 3.6 µM (active) | EC50 [9]: < 30 µM (active) | IC50 [10]: 2.07 µM (active) | IC50 [11]: > 5.53 µM (not active) | IC50 (CHO): 1.95 µM (active) | AC50 [12]: 2.49 µM (active) | EC50 (Protein RecA): 4.84 µM (active) | IC50 (Beta Lactamase): 7.13 µM (active) | AC50 (A-375 [13]): > 35 µM (active) | AC50 (A-375 [14]): > 35 µM (active) | AC50 (Paired box protein Pax-8): 7.81 µM (active)

Cc1nc2sccn2c(=O)c1CCN1CCC(=C(c2ccccc2)c2ccc(F)cc2)CC1
AC50 (Cytochrome P450 2C19): 15.8 µM (inconclusive) | EC50 [15]: 18.3 µM (active) | EC50 [16]: 17.4 µM (active)
